Holding throughout (type): cell-based
Test [1] has as its target T1, norepinephrine transporter (NET) (Homo sapiens, UniProt P23975).
T1 construct: expressed in transfected cells; host or cells: HEK-293
Kind of test: Norepinephrine reuptake inhibition, [3H]-NE, HEK-293 cells transfected with NE transporter cDNA. The settings on record: for Triple reuptake inhibition (Ratio %) NET: compound 1 μM, [3H]-NE, relative to control without compound = 100%, lower value = more inhibition; for IC50: concentration at which Ratio % is 50%, 6 concentrations 1 nM to 1 μM, read-out: Triple reuptake inhibition (IC50, μM) NET. The procedure: (§1) In order to evaluate the reuptake inhibitory effect of the compounds of the Examples according to the present invention on serotonin, norepinephrine and dopamine, the experiments below were performed, and the results are shown in Table 17.
(§2) To evaluate the reuptake inhibition effect on dopamine, the dopamine transporter cDNA was transfected using the HEK-293 cell line, and then sub-seeded in a 24 well plate the next day. After removing the medium, each compound of the Examples or Comparative Examples diluted to 1 μM in uptake buffer was added to a concentration of 200 μl/well and cultured at 37° C. for 15 minutes. 100 μl of uptake buffer containing 20-30 nM [3H]-DA was added and cultured at 37° C. for 5 minutes. The reaction solution was quickly removed and washed three times with 1 ml ice-cold uptake buffer. After dissolving the resultant in 1% SDS (0.5 ml), the degree of binding of radioisotope-labeled dopamine to the transporter was measured.
(§3) For norepinephrine (NE) and serotonin (5-HT), the degree of binding of radioisotope-labeled norepinephrine or serotonin to the transporter was measured in the same manner as above, except that cells transfected with NE or 5-HT transporter cDNA were used and [3H]—NE or [3H]-5-HT was used as a substrate.
(§4) In addition, when evaluating the reuptake inhibitory effect on dopamine, norepinephrine, and serotonin, the same method was performed without treating each compound of the Examples or Comparative Examples as a control, the degree of binding of radioisotope-labeled dopamine, norepinephrine, and serotonin to the transporter was measured, and by using this as a reference (100%), the triple reuptake inhibitory effect was evaluated as a relative ratio (Ratio %). That is, in the control group, the binding of dopamine, norepinephrine, and serotonin to transporters is not inhibited, but when each compound of the Examples is treated and thus the binding is inhibited, the Ratio % value decreases.
(§5) Meanwhile, the Ratio % values were compared, and in the case of the compounds of Examples 6, 10, 13, 14, 17, 20, 21, 22, 30, 31, 32, 34, 36, 38, 39, 40, 54, 55, 56, 57, 58 and 73 with excellent reuptake inhibitory effects on dopamine, norepinephrine and serotonin, the concentration at which the Ratio % is 50% was calculated using a total of 6 concentrations (1 nM, 5 nM, 10 nM, 50 nM, 100 nM, and 1 μM) and expressed as IC50.

Test [2] addresses T2, serotonin transporter (SERT) (Homo sapiens, UniProt P31645).
T2 construct: expressed in transfected cells; host or cells: HEK-293
Kind of test: Serotonin reuptake inhibition, [3H]-5-HT, HEK-293 cells transfected with 5-HT transporter cDNA. The settings on record: for IC50: concentration at which Ratio % is 50%, 6 concentrations 1 nM to 1 μM, read-out: Triple reuptake inhibition (IC50, μM) SERT. The procedure: as §1, §2, §3, §4, §5

For test [3], the target named is T3, dopamine transporter (DAT) (Homo sapiens, UniProt Q01959).
T3 construct: expressed in transfected cells; host or cells: HEK-293
In words: Dopamine reuptake inhibition, [3H]-DA, HEK-293 cells transfected with dopamine transporter cDNA. The note with it: for Triple reuptake inhibition (Ratio %) DAT: compound 1 μM, 20-30 nM [3H]-DA, relative to control without compound = 100%, lower value = more inhibition; for IC50: concentration at which Ratio % is 50%, 6 concentrations 1 nM to 1 μM, read-out: Triple reuptake inhibition (IC50, μM) DAT. The procedure: as §1, §2, §4, §5

The mark [4] stands for this setting: compound 1 μM, [3H]-5-HT, relative to control without compound = 100%, lower value = more inhibition.

Where two headings read alike, the source gives them in different places.

T2 sequence (P31645 whole entry, species assumed): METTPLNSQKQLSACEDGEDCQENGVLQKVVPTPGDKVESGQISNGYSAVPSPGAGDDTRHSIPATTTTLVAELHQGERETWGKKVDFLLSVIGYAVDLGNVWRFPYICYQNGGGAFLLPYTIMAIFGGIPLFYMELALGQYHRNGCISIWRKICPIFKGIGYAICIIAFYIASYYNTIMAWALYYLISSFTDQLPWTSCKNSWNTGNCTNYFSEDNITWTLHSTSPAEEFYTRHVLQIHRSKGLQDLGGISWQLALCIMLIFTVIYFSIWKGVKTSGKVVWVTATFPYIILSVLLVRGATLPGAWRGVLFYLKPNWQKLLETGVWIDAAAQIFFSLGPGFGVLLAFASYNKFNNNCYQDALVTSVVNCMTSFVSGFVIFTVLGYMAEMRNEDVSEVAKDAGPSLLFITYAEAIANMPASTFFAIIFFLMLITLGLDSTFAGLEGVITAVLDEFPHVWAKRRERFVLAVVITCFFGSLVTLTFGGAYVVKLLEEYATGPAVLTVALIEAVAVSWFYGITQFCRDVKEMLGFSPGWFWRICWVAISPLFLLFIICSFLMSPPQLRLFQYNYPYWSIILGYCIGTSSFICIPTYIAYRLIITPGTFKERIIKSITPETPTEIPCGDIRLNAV
T1 sequence (P23975 whole entry, species assumed): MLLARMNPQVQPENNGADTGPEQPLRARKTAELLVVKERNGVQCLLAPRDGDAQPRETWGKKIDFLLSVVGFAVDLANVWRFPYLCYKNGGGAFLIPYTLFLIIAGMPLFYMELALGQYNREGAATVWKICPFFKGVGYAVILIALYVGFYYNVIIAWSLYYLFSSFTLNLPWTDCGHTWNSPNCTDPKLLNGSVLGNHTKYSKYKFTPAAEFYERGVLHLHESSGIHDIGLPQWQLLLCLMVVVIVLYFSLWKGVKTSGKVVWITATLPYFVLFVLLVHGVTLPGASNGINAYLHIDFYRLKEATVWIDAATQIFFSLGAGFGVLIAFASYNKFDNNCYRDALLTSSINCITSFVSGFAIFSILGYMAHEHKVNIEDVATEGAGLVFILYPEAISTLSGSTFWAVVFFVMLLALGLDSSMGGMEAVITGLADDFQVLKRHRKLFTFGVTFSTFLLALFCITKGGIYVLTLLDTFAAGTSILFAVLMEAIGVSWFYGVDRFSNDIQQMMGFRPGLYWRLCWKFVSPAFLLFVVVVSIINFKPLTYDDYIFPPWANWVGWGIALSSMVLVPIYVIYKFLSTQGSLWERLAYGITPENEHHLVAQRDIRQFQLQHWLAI
T3 sequence (Q01959 whole entry, species assumed): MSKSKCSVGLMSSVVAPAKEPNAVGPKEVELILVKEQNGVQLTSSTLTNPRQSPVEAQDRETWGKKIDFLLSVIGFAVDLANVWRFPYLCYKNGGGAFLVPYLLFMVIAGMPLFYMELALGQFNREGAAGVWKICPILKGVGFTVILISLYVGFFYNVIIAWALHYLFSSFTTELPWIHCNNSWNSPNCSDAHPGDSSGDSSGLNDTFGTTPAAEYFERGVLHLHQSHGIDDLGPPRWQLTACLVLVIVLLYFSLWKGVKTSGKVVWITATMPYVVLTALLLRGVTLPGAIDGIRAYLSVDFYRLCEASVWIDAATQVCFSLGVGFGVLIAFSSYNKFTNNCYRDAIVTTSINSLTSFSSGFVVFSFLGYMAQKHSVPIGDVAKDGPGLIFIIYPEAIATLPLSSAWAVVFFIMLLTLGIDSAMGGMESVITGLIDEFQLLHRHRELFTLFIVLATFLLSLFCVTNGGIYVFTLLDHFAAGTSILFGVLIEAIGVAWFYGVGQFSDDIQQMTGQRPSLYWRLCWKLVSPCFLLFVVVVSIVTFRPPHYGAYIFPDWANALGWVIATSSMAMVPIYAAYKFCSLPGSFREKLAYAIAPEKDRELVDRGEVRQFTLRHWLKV

Regarding `O=S(=O)(NCCN1CCC(Cc2ccccc2)CC1)c1ccc(O)cc1` [Example 1, N-(2-(4-benzylpiperidin-1-yl)ethyl)-4-hydroxybenzenesulfonamide], in test [1], the “Triple reuptake inhibition (Ratio %) NET” value was determined as 77.88%. In addition, the “Triple reuptake inhibition (Ratio %) SERT” value in test [2] amounted to 84.98%. In addition, the “Triple reuptake inhibition (Ratio %) DAT” value in test [3] was determined as 65.88%.

Consider `O=S(=O)(NCCN1CCC(Cc2ccccc2)CC1)c1ccc2ccccc2n1` [Example 41, N-(2-(4-benzylpiperidin-1-yl)ethyl)quinolin-2-sulfonamide], for which the “Triple reuptake inhibition (Ratio %) NET” value in test [1] was determined as 34.97%. For the same compound, in test [2] (setting [4]), the “Triple reuptake inhibition (Ratio %) SERT” value worked out at 64.15%. Besides, the “Triple reuptake inhibition (Ratio %) DAT” value in test [3] worked out at 80.21%.

Usually IC50 stands for the concentration that gives 50% inhibition. As to `CCCCOc1ccc(S(=O)(=O)NCCCN2CCC(Cc3ccc(Cl)c(Cl)c3)CC2)cc1` [Example 20, 4-butoxy-N-(3-(4-(3,4-dichlorobenzyl)piperidin-1-yl)propyl)benzenesulfonamide], in test [1], the “Triple reuptake inhibition (Ratio %) NET” value came to 30.29% and the IC50 worked out at 0.221 µM. The “Triple reuptake inhibition (Ratio %) SERT” value in test [2] (setting [4]) is reported as 40.46%. Also, in test [2], the IC50 was determined as 0.504 µM. In test [3], the “Triple reuptake inhibition (Ratio %) DAT” value worked out at 56.29% and the half-maximal inhibitory concentration (IC50) was 2.16 µM.

As for `CN(C)CCC(=O)Nc1ccc(S(=O)(=O)NCCCN2CCC(Cc3ccccc3)CC2)cc1` [Example 18, N-(4-(N-(3-(4-benzylpiperidin-1-yl)propyl)sulfamoyl)phenyl)-3-(dimethylamino)propaneamide], the “Triple reuptake inhibition (Ratio %) NET” value in test [1] stood at 66.54%. In test [3], the “Triple reuptake inhibition (Ratio %) DAT” value was 65.67%.

Take `CCCCOc1ccc(S(=O)(=O)N2CCC(c3c[nH]c4ccccc34)CC2)cc1` [Example 5, 3-(1-((4-butoxyphenyl)sulfonyl)piperidin-4-yl)-1H-indole]: in test [1], the “Triple reuptake inhibition (Ratio %) NET” value is 94.03%. Moreover, the “Triple reuptake inhibition (Ratio %) SERT” value in test [2] (setting [4]) worked out at 106.55%. In addition, the “Triple reuptake inhibition (Ratio %) DAT” value in test [3] was found to be 100.55%.

For the compound `CCCCOc1ccc(S(=O)(=O)N2CCC(CCc3ccccc3)CC2)cc1` [Example 9, 1-((4-butoxyphenyl)sulfonyl)-4-phenethylpiperidin], the “Triple reuptake inhibition (Ratio %) NET” value in test [1] worked out at 96.32%. Also, the “Triple reuptake inhibition (Ratio %) SERT” value in test [2] (setting [4]) came to 101.11%. For the same compound, the “Triple reuptake inhibition (Ratio %) DAT” value in test [3] is given as 109.25%.

As to `O=S(=O)(NCCCCN1CCC(CCCc2ccccc2)CC1)c1ccc(-c2ccccc2)cc1` [Example 79, N-(4-(4-(3-phenylpropyl)piperidin-1-yl)butyl)-[1,1′-biphenyl]-4-sulfonamide], the “Triple reuptake inhibition (Ratio %) NET” value in test [1] stood at 30.25%. For the same compound, the “Triple reuptake inhibition (Ratio %) SERT” value in test [2] (setting [4]) came out at 21.60%. Moreover, the “Triple reuptake inhibition (Ratio %) DAT” value in test [3] is on record as 20.60%.

For `O=S(=O)(NCCCN1CCN(c2ccc(Cl)cc2)CC1)c1ccc2ccccc2c1` [Example 70, N-(3-(4-(4-chlorophenyl)piperazin-1-yl)propyl)naphthalen-2-sulfonamide], in test [1], the “Triple reuptake inhibition (Ratio %) NET” value is recorded as 87.27%. In test [2] (setting [4]), the “Triple reuptake inhibition (Ratio %) SERT” value was 45.16%. The “Triple reuptake inhibition (Ratio %) DAT” value in test [3] stood at 86.5%.

Consider `O=S(=O)(NCCCN1CCC(Cc2ccccc2)CC1)c1ccc2ccccc2c1` [Example 54, N-(3-(4-benzylpiperidin-1-yl)propyl)naphthalen-2-sulfonamide], for which the “Triple reuptake inhibition (Ratio %) NET” value in test [1] stood at 36.68%. Moreover, the figures for the concentration for half-maximal inhibition (IC50) in test [1], in test [2] and in test [3] were 1.25 µM, 1.94 µM and 0.948 µM, respectively. For the same compound, the “Triple reuptake inhibition (Ratio %) SERT” value in test [2] (setting [4]) came to 46.95%. The “Triple reuptake inhibition (Ratio %) DAT” value in test [3] was determined as 45.75%.

For `O=C(CCN1CCCCC1)Nc1ccc(S(=O)(=O)NCCCN2CCC(Cc3ccccc3)CC2)cc1` [Example 17, N-(4-(N-(3-(4-benzylpiperidin-1-yl)propyl)sulfamoyl)phenyl)-3-(piperidin-1-yl)propaneamide], in test [1], the “Triple reuptake inhibition (Ratio %) NET” value came out at 58.66%. Moreover, the values for the IC50 in test [1], in test [2] and in test [3] were 1.56 µM, 0.057 µM and 5.17 µM, respectively. Further, the “Triple reuptake inhibition (Ratio %) SERT” value in test [2] (setting [4]) is 9.28%. In addition, the “Triple reuptake inhibition (Ratio %) DAT” value in test [3] is reported as 40.96%.

Take `CCCCOc1ccc(S(=O)(=O)NCCCN2CCC(Cc3ccccc3)CC2)cc1` [Example 10, N-(3-(4-benzylpiperidin-1-yl)propyl)-4-butoxybenzenesulfonamide]: in test [1], the “Triple reuptake inhibition (Ratio %) NET” value was found to be 13.02% and the concentration for half-maximal inhibition (IC50) is 0.168 µM. Moreover, in test [2] (setting [4]), the “Triple reuptake inhibition (Ratio %) SERT” value was found to be 24.45%. The IC50 in test [2] was found to be 0.483 µM. Moreover, in test [3], the “Triple reuptake inhibition (Ratio %) DAT” value is given as 41.80% and the IC50 is 0.612 µM.

Take `O=S(=O)(NCCN1CCC(Cc2ccccc2)CC1)c1ccc(-c2ccccc2)cc1` [Example 40, N-(2-(4-benzylpiperidin-1-yl)ethyl)-[1,1′-biphenyl]-4-sulfonamide]: in test [1], the “Triple reuptake inhibition (Ratio %) NET” value is 33.45% and the IC50 is 1.05 µM. The “Triple reuptake inhibition (Ratio %) SERT” value in test [2] (setting [4]) was 33.23%. The IC50 in test [2] was found to be 3.08 µM. In addition, in test [3], the “Triple reuptake inhibition (Ratio %) DAT” value stood at 41.80% and the half-maximal inhibitory concentration (IC50) came to 3.92 µM.

For the compound `O=S(=O)(NCCCN1CCC(Cc2ccccc2)CC1)c1ccc(OC(F)(F)F)cc1` [Example 34, N-(3-(4-benzylpiperidin-1-yl)propyl)-4-(trifluoromethoxy)benzenesulfonamide], in test [1], the “Triple reuptake inhibition (Ratio %) NET” value is recorded as 20.03% and the IC50 was 0.612 µM. In addition, the “Triple reuptake inhibition (Ratio %) SERT” value in test [2] (setting [4]) is 57.25%. Moreover, the half-inhibitory concentration (IC50) in test [2] was determined as 2.59 µM. In test [3], the “Triple reuptake inhibition (Ratio %) DAT” value was 16.35% and the IC50 is 0.942 µM.

As to `CCCCOc1ccc(S(=O)(=O)NCCCN2CCC(c3ccc(Cl)c(Cl)c3)CC2)cc1` [Example 22, 4-butoxy-N-(3-(4-(3,4-dichlorophenyl)piperidinyl)propyl)benzenesulfonamide], the “Triple reuptake inhibition (Ratio %) NET” value in test [1] is on record as 36.85%. The IC50 in test [1] was found to be 0.55 µM; in test [2], 0.609 µM; in test [3], 1.51 µM. The “Triple reuptake inhibition (Ratio %) SERT” value in test [2] (setting [4]) amounted to 38.07%. Besides, in test [3], the “Triple reuptake inhibition (Ratio %) DAT” value is listed as 31.02%.

On to `COc1ccc(S(=O)(=O)NCCCN2CCC(Cc3ccccc3)CC2)cc1` [Example 14, N-(3-(4-benzylpiperidin-1-yl)propyl)-4-methoxybenzenesulfonamide], for which the “Triple reuptake inhibition (Ratio %) NET” value in test [1] was found to be 22.30%. Also, the concentration for half-maximal inhibition (IC50) in test [1] was found to be 0.173 µM; in test [2] it was 1.75 µM; in test [3], 1.26 µM. Moreover, the “Triple reuptake inhibition (Ratio %) SERT” value in test [2] (setting [4]) is 55.67%. Besides, in test [3], the “Triple reuptake inhibition (Ratio %) DAT” value is on record as 39.90%.

With `CCCCOc1ccc(S(=O)(=O)NCCCN2CCC(Cc3ccc(F)c(F)c3)CC2)cc1` [Example 21, 4-butoxy-N-(3-(4-(3,4-difluorobenzyl)piperidinyl)propyl)benzenesulfonamide], in test [1], the “Triple reuptake inhibition (Ratio %) NET” value stood at 26.67% and the 50% inhibitory concentration (IC50) stood at 0.946 µM. The “Triple reuptake inhibition (Ratio %) SERT” value in test [2] (setting [4]) was determined as 38.74%. The IC50 in test [2] was found to be 0.455 µM. Besides, in test [3], the “Triple reuptake inhibition (Ratio %) DAT” value is recorded as 57.35% and the IC50 was 4.72 µM.

On to `O=S(=O)(NCCCN1CCN(c2ccc(Cl)cc2)CC1)c1ccc(-c2ccccc2)cc1` [Example 72, N-(3-(4-(4-chlorophenyl)piperazin-1-yl)propyl)-[1,1′-biphenyl]-4-sulfonamide], for which the “Triple reuptake inhibition (Ratio %) NET” value in test [1] is 64.45%. For the same compound, the “Triple reuptake inhibition (Ratio %) SERT” value in test [2] (setting [4]) is reported as 47.19%. The “Triple reuptake inhibition (Ratio %) DAT” value in test [3] is 68.53%.

As to `O=S(=O)(NCCCN1CCC(c2ccccc2)CC1)c1cccc2ccccc12` [Example 63], the “Triple reuptake inhibition (Ratio %) NET” value in test [1] came out at 34.97%. Also, in test [2] (setting [4]), the “Triple reuptake inhibition (Ratio %) SERT” value was 64.15%. Besides, the “Triple reuptake inhibition (Ratio %) DAT” value in test [3] stood at 80.21%.

As for `O=S(=O)(NCCN1CCC(Cc2ccccc2)CC1)c1cc2ccccc2[nH]1` [Example 36, N-(2-(4-benzylpiperidin-1-yl)ethyl)-1H-indol-2-sulfonamide], the “Triple reuptake inhibition (Ratio %) NET” value in test [1] is 79.12%. For the same compound, the “Triple reuptake inhibition (Ratio %) SERT” value in test [2] (setting [4]) is listed as 72.85%. Also, in test [3], the “Triple reuptake inhibition (Ratio %) DAT” value turned out to be 30.48% and the IC50 was found to be 0.843 µM.

The values above are taken from patent US20230212121A1 (DAEGU-GYEONGBUK MEDICAL INNOVATION FOUNDATION, priority 2020, published 2023).
